Experimental data taken from patent US20210393745A1, “OLIGOMER EXTENDED INSULIN-FC CONJUGATES AND THEIR MEDICAL USE” (Novo Nordisk A/S, priority 2018, published 2021).

Legend:
[1] = target: T1, membrane-associated human IR-A (Homo sapiens, UniProt P06213); test: Insulin receptor affinity on membrane associated receptors (SPA), IR-A; format: binding; conditions: relative to human insulin
T1 construct: expressed in transfected cells; host or cells: BHK cells, pZem219B vector, plasma membrane preparation
Protocol: Membrane-associated human IR and IGF-1R are purified from BHK cells stably transfected with the pZem219B vector containing either the human IR-A, IR-B or IGF-IR insert. BHK cells are harvested and homogenized in ice-cold buffer (25 mM HEPES pH 7.4, 25 mM CaCl2 and 1 mM MgCl2, 250 mg/L bacitracin, 0.1 mM Pefablock). The homogenates are layered on a 41% (w/v) sucrose cushion and centrifuged for 75 minutes at 95000 g at 4° C. The plasma membranes are collected, diluted 1:5 with buffer (as above) and centrifuged again for 45 minutes at 40000 g at 4° C. The pellets are resuspended in a minimal volume of buffer and drawn through a needle (size 23) three times before storage at −80° C. until usage. The relative binding affinity for either of the membrane-associated human IR-A, IR-B or IGF-1R is determined by competition binding in a SPA setup. IR assays are performed in duplicate in 96-well OptiPlates (Perkin-Elmer Life Sciences). Membrane protein is incubated with gentle agitation for 150 minutes at 25° C. with 50 pM [^125IA14Y]-human insulin in a total volume of […] assay buffer (50 mM HEPES, 150 mM NaCl, 5 mM MgSO4, 0.01% Triton X-100, 0.1% (w/v) HSA (Sigma A1887), Complete EDTA-free protease inhibitors), 50 μg of wheat germ agglutinate (WGA)-coated PVT microspheres (GE Healthcare) and increasing concentrations of ligand. Assays are terminated by centrifugation of the plate at 2000 rpm for 2 minutes and bound radioactivity quantified by counting on a TopCount NXT (Perkin-Elmer Life Sciences).
IGF-1R assays are conducted essentially as for the IR binding assays except that membrane-associated IGF-1R and 50 pM [^125I-Tyr31]-human IGF-1 were employed.

[2] = In vivo PK after s.c. dosing, normal rats; set-up: species or system Sprague-Dawley rat; conditions: s.c. 30 nmol/kg, mean value
Protocol: (§1) Insulin-Fc conjugates were tested in vivo by subcutaneous (s.c.) administration to normal and streptozotocin (STZ) treated male Sprague-Dawley (SD) rats.
(§2) The rats were dosed s.c. in the neck region with a dose of 30 nmol/kg of the insulin-Fc conjugates. Blood samples for blood glucose and plasma insulin analysis were collected from the tongue vein up to 10 days post dosing. The insulin-Fc concentrations were measured by immuno-assay (LLOQ=1000 pM) and the resulting half-life values after s.c. dosing are shown in Table 4. The PK profiles for normal rats are shown in FIG. 3 and for streptozotocin treated rats in FIG. 6. Blood glucose (BG) was measured using Biosen S Line (EKF) and the BG and baseline corrected BG profiles for normal rats are shown in FIGS. 1 and 2 and for streptozotocin treated rats in FIGS. 4 and 5 respectively.

[3] = In vivo PK after s.c. dosing, streptozotocin treated rats; set-up: species or system Sprague-Dawley rat; conditions: s.c. 30 nmol/kg, mean value
Protocol: as §1, §2

[4] = target: T2, hFcRn ectodomain (Homo sapiens, UniProt P55899); test: SPR analysis of the binding of hFcRn ECD; conditions: pH 6.0, 25° C., steady-state fitting; read-out: Kn (μM), binding of hFcRn ECD
T2 construct: the hFcRn ectodomain diluted at 4000 nM with 2-fold serial dilutions was injected
Protocol: First, the three Insulin-Fc samples diluted at 10 ug/ml and the wild-type hIgG4 Fc (produced in HEK293 cells, i.e. glycosylated) diluted at 30 ug/ml in 10 mM sodium acetate (pH 4.5) (GE Healthcare, catalogue #BR100350) were immobilized on a CMD50L sensor chip (XanTec Bioanalytics GmbH) at spot 2 or 4 at 70-90 RU in each used flow cell via amine coupling with 1×HBS-EP+ (pH 7.4) (GE Healthcare, catalogue #BR-1006-69) used as the running buffer. The wild-type hIgG4 Fc was used as the control sample. In each used flow cell, spots 2, 3 and 4 were activated by 100 mM N-hydroxysuccinimide (NHS) and 400 mM N-ethyl-N′-dimethylaminopropyl carbodiimide hydrochloride (EDC) mixed at equal volume before the immobilization and blocked by 1 M ethanolamine hydrochloride-NaOH (pH 8.5) after the immobilization. NHS, EDC and ethanolamine were obtained from the Amine Coupling Kit, type 2 (GE Healthcare, catalogue #BR100633).
Next, the hFcRn ectodomain diluted at 4000 nM with 2-fold serial dilutions was injected through each used flow cell for 60 sec to allow for binding of the hFcRn ectodomain to the Insulin-Fc conjugates and wild-type hIgG4 Fc samples immobilized on the sensor chip, followed by dissociation for 180 sec. 1×PBS-EP+ (pH 6.0) was used as the dilution buffer for the hFcRn ectodomain and the running buffer in each binding cycle at the flow rate of 30 ul/min. After each binding cycle, the sensor chip was regenerated with a 60 sec injection of 1×PBS-EP+ (pH 7.4) at the flow rate of 30 ul/min. The 1×PBS-EP+ (pH 7.4) buffer was prepared by diluting 0.5 M EDTA (pH 8.0) (Invitrogen, catalogue #15575038) at 3 mM into 1×PBS-P+ (GE Healthcare, catalogue #28995084). The 1×PBS-EP+ (pH 6.0) buffer was prepared by adjusting the pH of the 1×PBS-EP+ buffer from 7.4 to 6.0 using ˜10 M HCl. The affinities (equilibrium dissociation constants, KD) were determined via steady-state fitting of the binding curves using the 1:1 binding model in Biacore 4000 Evaluation Software 1.0 (GE Healthcare).

T2 sequence (P55899 24-297 limits assumed): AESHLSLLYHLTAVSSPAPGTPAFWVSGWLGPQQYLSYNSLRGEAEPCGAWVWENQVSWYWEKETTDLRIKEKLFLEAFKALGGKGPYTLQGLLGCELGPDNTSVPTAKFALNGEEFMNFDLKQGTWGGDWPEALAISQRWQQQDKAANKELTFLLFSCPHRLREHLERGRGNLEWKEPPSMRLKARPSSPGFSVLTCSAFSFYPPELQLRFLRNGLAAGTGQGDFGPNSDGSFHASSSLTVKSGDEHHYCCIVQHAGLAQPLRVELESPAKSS
T2 sequence (P61769 21-119 partner): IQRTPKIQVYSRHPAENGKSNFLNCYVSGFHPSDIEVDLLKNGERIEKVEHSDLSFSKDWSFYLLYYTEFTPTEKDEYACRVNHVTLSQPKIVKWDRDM
T1 sequence (P06213 28-1370 isoform P06213-2 limits assumed): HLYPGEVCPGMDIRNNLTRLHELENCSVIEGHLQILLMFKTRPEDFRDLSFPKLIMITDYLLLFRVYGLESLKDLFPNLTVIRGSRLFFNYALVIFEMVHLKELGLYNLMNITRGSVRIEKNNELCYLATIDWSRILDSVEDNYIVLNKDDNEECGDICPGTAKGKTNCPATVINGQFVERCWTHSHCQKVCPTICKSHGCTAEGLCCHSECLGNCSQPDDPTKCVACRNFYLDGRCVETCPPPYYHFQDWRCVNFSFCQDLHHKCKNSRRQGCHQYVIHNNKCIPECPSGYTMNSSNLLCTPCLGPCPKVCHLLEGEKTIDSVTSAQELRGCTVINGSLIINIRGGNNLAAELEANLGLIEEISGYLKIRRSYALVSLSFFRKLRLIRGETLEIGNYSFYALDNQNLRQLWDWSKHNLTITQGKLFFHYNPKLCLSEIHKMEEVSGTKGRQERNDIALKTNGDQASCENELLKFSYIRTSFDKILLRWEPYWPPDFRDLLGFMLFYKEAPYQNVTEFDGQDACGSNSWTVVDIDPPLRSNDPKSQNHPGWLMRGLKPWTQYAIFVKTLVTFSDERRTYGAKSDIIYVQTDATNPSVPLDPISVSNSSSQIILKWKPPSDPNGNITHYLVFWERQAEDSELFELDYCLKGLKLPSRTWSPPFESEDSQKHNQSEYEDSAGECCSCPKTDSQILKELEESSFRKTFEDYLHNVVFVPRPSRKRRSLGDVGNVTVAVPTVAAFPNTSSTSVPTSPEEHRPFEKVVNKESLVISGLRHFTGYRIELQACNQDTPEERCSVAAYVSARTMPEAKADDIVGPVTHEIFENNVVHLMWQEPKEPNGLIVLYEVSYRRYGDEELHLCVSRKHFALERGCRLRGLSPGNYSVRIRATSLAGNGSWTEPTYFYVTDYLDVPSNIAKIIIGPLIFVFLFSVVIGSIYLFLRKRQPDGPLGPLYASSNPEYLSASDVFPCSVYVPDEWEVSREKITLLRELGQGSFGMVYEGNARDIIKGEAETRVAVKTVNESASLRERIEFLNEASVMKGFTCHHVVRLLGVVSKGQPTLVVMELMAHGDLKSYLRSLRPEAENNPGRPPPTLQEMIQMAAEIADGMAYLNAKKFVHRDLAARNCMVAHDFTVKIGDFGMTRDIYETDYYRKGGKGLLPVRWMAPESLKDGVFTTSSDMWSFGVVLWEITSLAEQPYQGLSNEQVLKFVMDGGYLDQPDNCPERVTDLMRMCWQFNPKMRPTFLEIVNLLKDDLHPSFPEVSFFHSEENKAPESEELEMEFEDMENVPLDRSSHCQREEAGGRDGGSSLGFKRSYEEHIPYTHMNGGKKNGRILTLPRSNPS
T1 sequence (P06213 763-1382 partner limits assumed): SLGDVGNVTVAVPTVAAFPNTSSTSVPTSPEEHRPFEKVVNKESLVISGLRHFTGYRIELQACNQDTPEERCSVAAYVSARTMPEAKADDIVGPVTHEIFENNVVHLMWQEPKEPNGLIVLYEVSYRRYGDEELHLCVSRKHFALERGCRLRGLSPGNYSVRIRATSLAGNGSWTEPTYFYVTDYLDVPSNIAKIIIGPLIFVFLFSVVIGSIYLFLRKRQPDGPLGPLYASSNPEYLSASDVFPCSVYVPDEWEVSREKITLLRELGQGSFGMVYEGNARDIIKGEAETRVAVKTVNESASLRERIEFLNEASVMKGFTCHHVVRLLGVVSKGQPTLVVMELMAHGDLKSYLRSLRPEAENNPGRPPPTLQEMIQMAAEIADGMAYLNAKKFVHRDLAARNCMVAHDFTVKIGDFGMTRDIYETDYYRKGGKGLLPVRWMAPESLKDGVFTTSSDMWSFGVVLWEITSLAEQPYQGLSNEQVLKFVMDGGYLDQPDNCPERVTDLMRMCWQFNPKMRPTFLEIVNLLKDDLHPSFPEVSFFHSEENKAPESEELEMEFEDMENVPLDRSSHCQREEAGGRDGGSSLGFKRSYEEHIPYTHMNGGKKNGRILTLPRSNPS

Substance | hIR-A mem Rel. aff. (%) [1] [%] | PK normal rat [T1/2, s.c. (h)] [2] [h] | PK STZ rat [T1/2, s.c. (h)] [3] [h] | Kd [4] [µM]
(A14E, A21G, A22(GQEP)11, A66G, A67Q, A68E, A69K^, A70P, B16H, B25H, B29R, desB30 human insulin)/(226A, 227G, 228P, 234A, 235K, 297E, 315Q, 384Q, des447 hIgG4-Fc(226-447))3,5-bis[(2-acetyl)amino]benzoyl Conjugate [Example 5.2] | 1.27 | 38 | 39 | 1.6
(A14E, A21G, A22(GQEP)12, A70K^, A71P, B25H, B29R, desB30 human insulin)/(226A, 227G, 228P, 234A, 235K, 297E, 315Q, 384Q, des447 hIgG4-Fc(226-447))3,5-bis[(2-acetyl)amino]benzoyl Conjugate [Example 5.1] | 2.97 | 20 | 24 | 1.5
